Data published in US5608143A, “External regulation of gene expression” (E. I. Du Pont de Nemours and Company, priority 1994, dated 1997).

Tests used:
[1] = tested on: petunia P6.1 gene (P6 RNA); assay: Northern / RNAse protection analysis of P6 RNA in roots of chemically treated petunia; format: in vivo, Petunia (Mitchell)
Excerpt: Petunia (Mitchell) seeds were germinated in soil and allowed to grow for one month under standard greenhouse conditions. Plants were transferred to a hydroponic growth apparatus in a greenhouse using foam plugs to support the plants. These plugs were then placed in holes in a wooden bDard and placed over a stainless steel sink containing 0.5× Hoagland's solution. The solution was aerated using standard aquarium pumps, and was changed weekly. After one month of hydroponic growth, plants were transferred to stainless steel trays containing either fresh 0.5 × Hoagland's or 0.5× Hoagland's containing 0.2 g per liter of N-(aminocarbonyl)-2-chlorobenzenesulfonamide. Root tissue was harvested after six hours of treatment.
Ten μg (2 mg/ml) of total RNA from control and N-(aminocarbonyl)-2-chlorobenzenesulfonamide-treated roots was denatured by adding 10 μl of deionized formamide, 3.5 μl formaldehyde, 4 μl 5× MEN buffer (40 mM MOPS pH 7.0, 10 mM sodium acetate, 1 mM EDTA) and incubating at 65° C. for 15 minutes. […] RNA was stained in the presence of 10 mM sodium phosphate pH 6.8 and 1 μg/ml acridine orange for 30 minutes. The gel was then desrained in 10 mM sodium phosphate for 30 minutes, and the RNA was visualized on a UV transilluminator, photographed, and blotted to nitrocellulose (Millipore HAWP). To do this, Whatman 3MM paper was placed below the gel on a glass plate so that the ends of the paper extended into 20× SSC. A sheet of nitroccllulose which had been prewet with 2× SSC was placed on top of the gel followed by a layer of Whatman 3MM, then a stack of paper towels 10 cm high. A glass plate and weight were then placed on top of the stack. Following an overnight transfer, the filter was rinsed briefly in 2× SSC, air dried, and baked in vacuo for 2 hours at 80° C.
The filters were prehybridized for 5 hours in plastic dishes at 42° C. using the hybridization buffer described earlier. Plasmid p6.1 was nick-translated by combining 1 μg of DNA with 5 μl 10× buffer (0.5M Tris-HCl pH 8.0, 0.1M MgSO4, 10 mM DTT and 0.5 mg/ml BSA), 5 μl 0.3 uM d(AGT)TP, 5 μl ^32 P-dCTP (Amersham, 10 mCi/ml, 400 Ci/mmole), 1 μl DNA polymerase 1 (5 U/μl, Boehringer-Mannheim), and 1 μl of 0.1 μg/ml DNAse 1 in a total volume of 50 μl. […] The reaction was then incubated for 5 minutes at 70° C., and labelled DNA was separated from unincorporated nucleotides by Sephadex® G-50 column chromatography. The prehybridization solution was removed from the bag and replaced with hybridization solution containing nick-translated plasmid P6.1 DNA at a concentration of 1×10^6 cpm/ml. […] Filters were washed twice with 2× SSC, 0.1% SDS at 42° C. followed by two washes in 0.1× SSC, 0.1%SDS at 60° C.
RNA probes complementary to the coding strands in both P644 and P645 were synthesized in the following reaction: 50 uCi ^32 P-UTP, 2 μl 5× transcription buffer (200 mM Tris-HCl pH 7.5, 30 mM MgCl2, 10 mM spermidine), 0.5 μl 0.2M DTT, and 0.5 μl of either T3 polymerase (plasmid P645) or T7 polymerase (plasmid P644). Incubation was carried out at 40° C. for 1 hour. The DNA template was hydrolyzed for 15 minutes at 37° C. by addition of 30 μl H2 O, 1 μl RNAsin, 2,5 μl vanadyl ribonucleoside complex, 6 μl 5× transcription buffer and 1 μl DNAse 1 (1 mg/ml) to the transcription reaction. The reaction was extracted with an equal volume of phenol:chloroform (1:1 v/v). The RNA was precipitated once with ethanol in the presence of ammonium acetate and once with ethanol in the presence of sodium acetate. The pellets were dissolved in 25 μl of TE. Ten μg of RNA from untreated and N-(aminocarbonyl)-2-chlorobenzenesulfonamide-treated plants were mixed with 1×10^6 cpm of each of the two probes in 30 ul of hybridization buffer (40 mM PIPES pH 6.7, 0.4M NaCl, 1 mM EDTA). […] Single stranded RNA was selectively digested by adding 300 μl RNAse A and RNAse T1 to 40 μg/ml and 2 μg/ml respectively in 10 mM Tris-HCl pH 7.5, 5 mM EDTA, and 300 mM NaCl.

[2] = tested on: petunia P6.1 gene (and endogenous tobacco T2.1 gene); assay: RNAse protection analysis of petunia P6.1 gene expression in transgenic tobacco roots and callus; format: in vivo, tobacco (SR1)
Procedure: Tobacco (SR1) was used as the recipient for transformation. In vitro grown leaf material was sliced into strips using a scalpel. The strips were dipped into Agrobacterium tumefaciens containing the construct P627 (bacterial concentration was 0.2 A550). Leaf pieces were placed on media containing MS major salts, MS minor salts, B5 vitamins, MS iron, 3% sucrose, 0.1 μg/l NAA, […], 0.7% TC agar, pH 5.8 and incubated for 2-3 days under growlights. Leaf material was removed and washed by placing in liquid culture medium containing […] and rotating gently for 3-4 hours. The leaf pieces were then placed on medium containing 100 μg/l carbinicillin and 300 mg/l kanamycin and transferred every 2 weeks. Shoots appeared after 2-8 weeks and were transferred to rooting medium (0.5× MS major salts, MS minor salts, iron, 1% sucrose, 0.8% agar, and 2 μM indolebutyric acid). Eight independent transformed plants were regenerated. […]
The inducibility of the P6.1 gene was also examined in callus tissue derived from transformed tobacco plants. […] The inducibility of both the introduced petunia P6 gene and the endogenous tobacco T2.1 gene by N-(aminocarbonyl)-2-chlorobenzanesulfonamide treatment was evaluated using the RNAse protection analysis as described above. […]

[3] = tested on: tobacco leaf pieces (callus formation); assay: Callus formation of leaf pieces from kanamycin-resistant tobacco shoots on selective medium; format: cell-based; conditions: sixteen kanamycin-resistant shoots, three weeks; 10 ppb chlorsulfuron and/or 100 ppm D5293
Excerpt: Callus formation was scored as plus or minus after three weeks of growth.

[4] = hydroponic 200 mg/l, sampled at 2, 4, 6 and 22 hours, roots

Compound: NC(=O)NS(=O)(=O)c1ccccc1Cl
- hybridization of P6.1 probe to root RNA (Northern blot) ([1]; hydroponic 0.2 g per liter, six hours, petunia roots): hybridized to an 800 bp message
- time at which P6 RNA reached maximum levels [1, 4]: ≤ 6 h
- time at which P6 RNA was detectable [1, 4]: ≤ 2 h
- RNAse protection of P6.1 probes by root RNA ([1]; petunia roots, treated vs untreated plants): Protected fragments of 110 bp were observed in induced but not control RNA
- expression of petunia P6 gene and endogenous tobacco T2.1 gene in callus (RNAse protection) ([2]; callus from transformed tobacco, 100 mg/l, 6 and 20 hours): strong expression of both genes was observed
- inducible expression of the transferred petunia P6.1 gene in roots (RNAse protection) ([2]; transgenic tobacco (P627), hydroponic 200 mg/l, six hours): All eight transformants demonstrated inducible expression
- Callus formation (shoots whose leaf pieces formed callus / shoots tested) [3]: 0/16
